Results: PubChem BioAssay AID1963980 (Molecular Pharmacology Branch, DTP, NCI, 2024)

These compounds were tested on 475296-252-R-J1-PDC spheroid viability (assay: Anticancer human tumor 475296-252-R-J1-PDC patient-derived rectal carcinoma cell line growth inhibition [PI3K]). Conditions: second compound 0.316 µM; first compound 1 µM; stronger effect = lower value; spheroids with HUVEC and MSC.
Summary of the method: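 Tumor cells grown as multi-cell spheroids with HUVEC endothelial cells and MSC fibroblast-like stroma were treated with targeted agents combined with inavolisib, alpelisib, duvelisib or copanlisib. Doses fell in half-log steps from near clinical Cmax, else from 10 microM. Viability was measured.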
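Note: spheroids exposed to agents for seven days before readout.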

| Compound | viability, T/C |
| --- | --- |
| C#Cc1c(F)ccc2cc(O)cc(-c3ncc4c(N5CC6CCC(C5)N6)nc(OCC56CCCN5CC(F)C6)nc4c3F)c12 (stereo unspecified) + Cc1nc(NC(=O)N2CCCC2C(N)=O)sc1-c1ccnc(C(C)(C)C(F)(F)F)c1 | 71.7% |
| C=CC(=O)N1CCN(c2nc(=O)n(-c3c(C)ccnc3C(C)C)c3nc(-c4c(O)cccc4F)c(F)cc23)C(C)C1 (stereo unspecified) + Cc1nc(NC(=O)N2CCCC2C(N)=O)sc1-c1ccnc(C(C)(C)C(F)(F)F)c1 | 103% |
| CC(Cn1ccc(-c2ccc(C#N)c(Cl)c2)n1)NC(=O)c1cc(C(C)O)[nH]n1 (stereo unspecified) + Cc1nc(NC(=O)N2CCCC2C(N)=O)sc1-c1ccnc(C(C)(C)C(F)(F)F)c1 | 97.9% |
| Cn1ncc(Cl)c1-c1cc(C(=O)NC(CN)Cc2cccc(F)c2)sc1Cl (stereo unspecified) + Cc1nc(NC(=O)N2CCCC2C(N)=O)sc1-c1ccnc(C(C)(C)C(F)(F)F)c1 | 55.9% |
| Cn1nccc1Nc1nccc(-c2ccn(C(CO)c3ccc(Cl)c(F)c3)c(=O)c2)n1 (stereo unspecified) + Cc1nc(NC(=O)N2CCCC2C(N)=O)sc1-c1ccnc(C(C)(C)C(F)(F)F)c1 | 85% |

Same assay, conditions: second compound 0.316 µM; first compound 3.16 µM; stronger effect = lower value; spheroids with HUVEC and MSC

| Compound | viability, T/C |
| --- | --- |
| C#Cc1c(F)ccc2cc(O)cc(-c3ncc4c(N5CC6CCC(C5)N6)nc(OCC56CCCN5CC(F)C6)nc4c3F)c12 (stereo unspecified) + Cc1nc(NC(=O)N2CCCC2C(N)=O)sc1-c1ccnc(C(C)(C)C(F)(F)F)c1 | 61.1% |
| C=CC(=O)N1CCN(c2nc(=O)n(-c3c(C)ccnc3C(C)C)c3nc(-c4c(O)cccc4F)c(F)cc23)C(C)C1 (stereo unspecified) + Cc1nc(NC(=O)N2CCCC2C(N)=O)sc1-c1ccnc(C(C)(C)C(F)(F)F)c1 | 96.8% |
| CC(Cn1ccc(-c2ccc(C#N)c(Cl)c2)n1)NC(=O)c1cc(C(C)O)[nH]n1 (stereo unspecified) + Cc1nc(NC(=O)N2CCCC2C(N)=O)sc1-c1ccnc(C(C)(C)C(F)(F)F)c1 | 102% |
| Cn1ncc(Cl)c1-c1cc(C(=O)NC(CN)Cc2cccc(F)c2)sc1Cl (stereo unspecified) + Cc1nc(NC(=O)N2CCCC2C(N)=O)sc1-c1ccnc(C(C)(C)C(F)(F)F)c1 | 67.3% |
| Cn1nccc1Nc1nccc(-c2ccn(C(CO)c3ccc(Cl)c(F)c3)c(=O)c2)n1 (stereo unspecified) + Cc1nc(NC(=O)N2CCCC2C(N)=O)sc1-c1ccnc(C(C)(C)C(F)(F)F)c1 | 81.1% |

Same assay, conditions: second compound 0.316 µM; first compound 10 µM; stronger effect = lower value; spheroids with HUVEC and MSC

| Compound | viability, T/C |
| --- | --- |
| C#Cc1c(F)ccc2cc(O)cc(-c3ncc4c(N5CC6CCC(C5)N6)nc(OCC56CCCN5CC(F)C6)nc4c3F)c12 (stereo unspecified) + Cc1nc(NC(=O)N2CCCC2C(N)=O)sc1-c1ccnc(C(C)(C)C(F)(F)F)c1 | 48% |
| C=CC(=O)N1CCN(c2nc(=O)n(-c3c(C)ccnc3C(C)C)c3nc(-c4c(O)cccc4F)c(F)cc23)C(C)C1 (stereo unspecified) + Cc1nc(NC(=O)N2CCCC2C(N)=O)sc1-c1ccnc(C(C)(C)C(F)(F)F)c1 | 95% |
| CC(Cn1ccc(-c2ccc(C#N)c(Cl)c2)n1)NC(=O)c1cc(C(C)O)[nH]n1 (stereo unspecified) + Cc1nc(NC(=O)N2CCCC2C(N)=O)sc1-c1ccnc(C(C)(C)C(F)(F)F)c1 | 99.1% |
| Cn1ncc(Cl)c1-c1cc(C(=O)NC(CN)Cc2cccc(F)c2)sc1Cl (stereo unspecified) + Cc1nc(NC(=O)N2CCCC2C(N)=O)sc1-c1ccnc(C(C)(C)C(F)(F)F)c1 | 54% |
| Cn1nccc1Nc1nccc(-c2ccn(C(CO)c3ccc(Cl)c(F)c3)c(=O)c2)n1 (stereo unspecified) + Cc1nc(NC(=O)N2CCCC2C(N)=O)sc1-c1ccnc(C(C)(C)C(F)(F)F)c1 | 68.5% |

Same assay, conditions: second compound 1 µM; first compound 0.0316 µM; stronger effect = lower value; spheroids with HUVEC and MSC

| Compound | viability, T/C |
| --- | --- |
| C#Cc1c(F)ccc2cc(O)cc(-c3ncc4c(N5CC6CCC(C5)N6)nc(OCC56CCCN5CC(F)C6)nc4c3F)c12 (stereo unspecified) + Cc1nc(NC(=O)N2CCCC2C(N)=O)sc1-c1ccnc(C(C)(C)C(F)(F)F)c1 | 78.4% |
| C=CC(=O)N1CCN(c2nc(=O)n(-c3c(C)ccnc3C(C)C)c3nc(-c4c(O)cccc4F)c(F)cc23)C(C)C1 (stereo unspecified) + Cc1nc(NC(=O)N2CCCC2C(N)=O)sc1-c1ccnc(C(C)(C)C(F)(F)F)c1 | 88% |
| CC(Cn1ccc(-c2ccc(C#N)c(Cl)c2)n1)NC(=O)c1cc(C(C)O)[nH]n1 (stereo unspecified) + Cc1nc(NC(=O)N2CCCC2C(N)=O)sc1-c1ccnc(C(C)(C)C(F)(F)F)c1 | 95.9% |
| Cn1ncc(Cl)c1-c1cc(C(=O)NC(CN)Cc2cccc(F)c2)sc1Cl (stereo unspecified) + Cc1nc(NC(=O)N2CCCC2C(N)=O)sc1-c1ccnc(C(C)(C)C(F)(F)F)c1 | 84.5% |
| Cn1nccc1Nc1nccc(-c2ccn(C(CO)c3ccc(Cl)c(F)c3)c(=O)c2)n1 (stereo unspecified) + Cc1nc(NC(=O)N2CCCC2C(N)=O)sc1-c1ccnc(C(C)(C)C(F)(F)F)c1 | 92.1% |

Same assay, conditions: second compound 1 µM; first compound 0.1 µM; stronger effect = lower value; spheroids with HUVEC and MSC

| Compound | viability, T/C |
| --- | --- |
| C#Cc1c(F)ccc2cc(O)cc(-c3ncc4c(N5CC6CCC(C5)N6)nc(OCC56CCCN5CC(F)C6)nc4c3F)c12 (stereo unspecified) + Cc1nc(NC(=O)N2CCCC2C(N)=O)sc1-c1ccnc(C(C)(C)C(F)(F)F)c1 | 82.8% |
| C=CC(=O)N1CCN(c2nc(=O)n(-c3c(C)ccnc3C(C)C)c3nc(-c4c(O)cccc4F)c(F)cc23)C(C)C1 (stereo unspecified) + Cc1nc(NC(=O)N2CCCC2C(N)=O)sc1-c1ccnc(C(C)(C)C(F)(F)F)c1 | 94.1% |
| CC(Cn1ccc(-c2ccc(C#N)c(Cl)c2)n1)NC(=O)c1cc(C(C)O)[nH]n1 (stereo unspecified) + Cc1nc(NC(=O)N2CCCC2C(N)=O)sc1-c1ccnc(C(C)(C)C(F)(F)F)c1 | 108% |
| Cn1ncc(Cl)c1-c1cc(C(=O)NC(CN)Cc2cccc(F)c2)sc1Cl (stereo unspecified) + Cc1nc(NC(=O)N2CCCC2C(N)=O)sc1-c1ccnc(C(C)(C)C(F)(F)F)c1 | 85.4% |
| Cn1nccc1Nc1nccc(-c2ccn(C(CO)c3ccc(Cl)c(F)c3)c(=O)c2)n1 (stereo unspecified) + Cc1nc(NC(=O)N2CCCC2C(N)=O)sc1-c1ccnc(C(C)(C)C(F)(F)F)c1 | 91.5% |

Same assay, conditions: second compound 1 µM; first compound 0.316 µM; stronger effect = lower value; spheroids with HUVEC and MSC

| Compound | viability, T/C |
| --- | --- |
| C#Cc1c(F)ccc2cc(O)cc(-c3ncc4c(N5CC6CCC(C5)N6)nc(OCC56CCCN5CC(F)C6)nc4c3F)c12 (stereo unspecified) + Cc1nc(NC(=O)N2CCCC2C(N)=O)sc1-c1ccnc(C(C)(C)C(F)(F)F)c1 | 72% |
